Converted amounts (≈) assume the structure as drawn. Where two headings read alike, the source gives them in different places. Square brackets hold non-standard residues; d marks the D form. Peptide text beside a SMILES is read from it. Nspe = C[C@H](NCC(=O)O)c1ccccc1; Nlys = NCCCCNCC(=O)O
How the values were obtained:
[1] = tested on: E. faecalis ATCC29212; assay: microbe, parasite or virus in culture; conditions: ATCC29212
Protocol: (§1) The MICs of test agents were measured using a modified broth micro-dilution method in Difco Mueller Hinton medium, on a panel of bacterial pathogens that were both susceptible and resistant to common antibiotics (S1 File). Briefly, serial dilutions were performed in 0.01% acetic acid containing 0.2% bovine serum albumin at 10-fold the desired final concentration. Ten μL of the 10-fold concentrated test reagents were added to each well of a 96-well polypropylene microtitre plate containing 90 μL of Mueller Hinton media per well. Bacteria were added to the plate from an overnight culture at a final concentration of 2–7 x 10^5 CFU/mL and incubated overnight at 37°C. The MIC is defined as the concentration at which no growth was observed.
(§2) Screening of peptoid antimicrobial activity against a panel of multidrug resistant superbugs was done according to the protocol described in the manuscript. The bacterial strains used in this panel included; P. aeruginosa PAO1 strain H103 [1], P. maltophilia ATCC#13637, S. aureus ATCC#25923 [1], E. faecalis ATCC#29212 [2], and E. cloacae 218R, constitutively expressing Class C chromosomal β-lactamase, were from the Hancock lab strains collection. An MRSA clinical isolate was kindly provided by Anthony Chow (Vancouver General Hospital, Vancouver, Canada). Two Klebsiella pneumoniae and two E. coli clinical isolates expressing extended spectrum β-lactamases (ESBL) were kindly provided by George Zhanel (Health Sciences Centre, Winnipeg, Canada). Vancomycin-resistant clinical isolates of Enterococcus faecalis and E. faecium were obtained from Ana M. Paccagnella (BC Centre for Disease Control, Vancouver, Canada). Three clinical isolates (#9, #198 and #213) of multi-drug resistant P. aeruginosa, were kindly provided by Carlos Kiffer (University of São Paulo, Brazil). […] Three P. aeruginosa clinical isolates of the Liverpool epidemic strain (LES) (H1027, H1030 and LES400) were all kindly provided by Craig Winstanley (University of Liverpool, UK). […] All tested bacterial strains were categorized as biohazard level 2 pathogens.

[2] = tested on: E. coli 63103 (ESBL); assay: microbe, parasite or virus in culture
Protocol: as §1, §2

[3] = tested on: S. aureus C623 (MRSA); assay: microbe, parasite or virus in culture
Protocol: as §1, §2

[4] = tested on: P. aeruginosa H103 (wild type); assay: microbe, parasite or virus in culture
Protocol: as §1, §2

[5] = tested on: P. aeruginosa 213 (MDR); assay: microbe, parasite or virus in culture
Protocol: as §1, §2

[6] = tested on: S. aureus ATCC25923; assay: microbe, parasite or virus in culture; conditions: ATCC25923
Protocol: as §1, §2

[7] = tested on: E. faecium T62764 (VRE); assay: microbe, parasite or virus in culture
Protocol: as §1, §2

[8] = tested on: E. faecium mic80 (VRE); assay: microbe, parasite or virus in culture
Protocol: as §1, §2

[9] = tested on: K. pneumonia 63575 (ESBL); assay: microbe, parasite or virus in culture
Protocol: as §1, §2

[10] = tested on: E. coli 64771 (ESBL); assay: microbe, parasite or virus in culture
Protocol: as §1, §2

[11] = tested on: P. aeruginosa H1027 (MDR); assay: microbe, parasite or virus in culture
Protocol: as §1, §2

[12] = tested on: E. cloacae 218R Class C β-lactamase; assay: microbe, parasite or virus in culture
Protocol: as §1, §2

[13] = tested on: P. aeruginosa H1030 (MDR); assay: microbe, parasite or virus in culture
Protocol: as §1, §2

[14] = tested on: E. faecalis W61950 (VRE); assay: microbe, parasite or virus in culture
Protocol: as §1, §2

[15] = tested on: E. faecalis F43559 (VRE); assay: microbe, parasite or virus in culture
Protocol: as §1, §2

[16] = tested on: P. aeruginosa 9 (MDR); assay: microbe, parasite or virus in culture
Protocol: as §1, §2

[17] = tested on: K. pneumonia 61962 (ESBL); assay: microbe, parasite or virus in culture
Protocol: as §1, §2

[18] = tested on: P. aeruginosa LES400 (MDR); assay: microbe, parasite or virus in culture
Protocol: as §1, §2

[19] = tested on: P. aeruginosa 198 (MDR); assay: microbe, parasite or virus in culture
Protocol: as §1, §2

[20] = tested on: P. maltophilia ATCC13637; assay: microbe, parasite or virus in culture; conditions: ATCC13637
Protocol: as §1, §2

[21] = tested on: E. coli ATCC 35218; type: cell-based
Protocol: MICs against B. subtilis and E. coli screening bacterial strains were determined using serial dilution in 96-well microtiter plates in accordance with CLSI M7-A6 protocols. Briefly, peptoid solution in cation-adjusted Mueller-Hinton broth was prepared by 2:1 serial dilution with a total volume of 50 µL per well. In experimental wells, 50 µL of bacterial inoculums (1 x 10^6 CFU/mL) were added to the peptoid solutions. Positive controls consisted of 50 µL inoculums added to 50 µL cation-adjusted Mueller-Hinton broth containing no peptoid, while negative controls contained only cation-adjusted Mueller-Hinton broth. […] Experiments were reproducible among three independent replicates, each consisting of two parallel trials.

[22] = tested on: erythrocytes; assay: Hemolytic activity (HD10/HD50); type: cell-based
Excerpt: Table 1 Characteristics of antimicrobial peptoids, screened for activity against B. subtilis and E. coli bacterial strains. | column: HD10 / HD50

## NC[C@H]1O[C@H](O[C@H]2[C@H](O)[C@@H](O[C@H]3O[C@H](CO)[C@@H](O)[C@H](N)[C@H]3O)[C@H](N)C[C@@H]2N)[C@H](N)C[C@@H]1O [Tobramycin, reference compound]
[1]; Enterococcus faecalis
  MIC: 16 µg/mL (≈ 34.2 µM)
[2]; Escherichia coli
  MIC: 64 µg/mL (≈ 137 µM)
[3]; Staphylococcus aureus, MRSA
  MIC: > 128 µg/mL
[4]; Pseudomonas aeruginosa
  MIC: 0.5 µg/mL (≈ 1.07 µM)
[5]; Pseudomonas aeruginosa
  MIC: > 128 µg/mL
[6]; Staphylococcus aureus
  MIC: 0.3 µg/mL (≈ 0.642 µM)
[7]; Enterococcus faecium, VRE
  MIC: > 128 µg/mL
[8]; Enterococcus faecium, VRE
  MIC: 128 µg/mL (≈ 274 µM)
[9]; Klebsiella pneumoniae
  MIC: 16 µg/mL (≈ 34.2 µM)
[10]; Escherichia coli
  MIC: 128 µg/mL (≈ 274 µM)
[11]; Pseudomonas aeruginosa
  MIC: 32 µg/mL (≈ 68.4 µM)
[12]; Enterobacter cloacae
  MIC: 0.5 µg/mL (≈ 1.07 µM)
[13]; Pseudomonas aeruginosa
  MIC: 8 µg/mL (≈ 17.1 µM)
[14]; Enterococcus faecalis, VRE
  MIC: > 128 µg/mL
[15]; Enterococcus faecalis, VRE
  MIC: 32 µg/mL (≈ 68.4 µM)
[16]; Pseudomonas aeruginosa
  MIC: > 128 µg/mL
[17]; Klebsiella pneumoniae
  MIC: 32 µg/mL (≈ 68.4 µM)
[18]; Pseudomonas aeruginosa
  MIC: 4 µg/mL (≈ 8.56 µM)
[19]; Pseudomonas aeruginosa
  MIC: > 128 µg/mL
[20]; Stenotrophomonas maltophilia
  MIC: 4 µg/mL (≈ 8.56 µM)

## C[C@@H](c1ccccc1)N(CC(N)=O)C(=O)CN(C(=O)CN(CCCCN)C(=O)[C@@H]1CCCN1C(=O)CN(C(=O)CN(CCCCN)C(=O)CN(C(=O)CN(C(=O)CN(CCCCN)C(=O)CN(C(=O)CN(C(=O)CNCCCCN)[C@@H](C)c1ccccc1)[C@@H](C)c1ccccc1)[C@@H](C)c1ccccc1)[C@@H](C)c1ccccc1)[C@@H](C)c1ccccc1)[C@@H](C)c1ccccc1 [Peptoid 1-Pro9, H-(NLys-Nspe2)2-NLys-Nspe-L-Pro-(NLys-Nspe2)-NH2] (H-[Nlys][Nspe][Nspe][Nlys][Nspe][Nspe][Nlys][Nspe]P[Nlys][Nspe][Nspe]-NH2)
[1]
  MIC: 16 µg/mL (≈ 9.12 µM)
[2]; 63103 (ESBL)
  MIC: 32 µg/mL (≈ 18.2 µM)
[3]; C623
  MIC: 8 µg/mL (≈ 4.56 µM)
[4]; H103 (wild type)
  MIC: 8 µg/mL (≈ 4.56 µM)
[5]; 213 (MDR)
  MIC: 16 µg/mL (≈ 9.12 µM)
[6]
  MIC: 8 µg/mL (≈ 4.56 µM)
[7]; T62764 (VRE)
  MIC: 2 µg/mL (≈ 1.14 µM)
[8]; mic80 (VRE)
  MIC: 8 µg/mL (≈ 4.56 µM)
[9]
  MIC: 64 µg/mL (≈ 36.5 µM)
[10]; 64771 (ESBL)
  MIC: 8 µg/mL (≈ 4.56 µM)
[11]; H1027 (MDR)
  MIC: 2 µg/mL (≈ 1.14 µM)
[12]; 218R Class C β-lactamase
  MIC: 32 µg/mL (≈ 18.2 µM)
[13]; P. aeruginosa H1030 (MDR)
  MIC: 32 µg/mL (≈ 18.2 µM)
[14]; W61950 (VRE)
  MIC: 32 µg/mL (≈ 18.2 µM)
[15]; F43559 (VRE)
  MIC: 8 µg/mL (≈ 4.56 µM)
[16]; 9 (MDR)
  MIC: 256 µg/mL (≈ 146 µM)
[17]
  MIC: 128 µg/mL (≈ 72.9 µM)
[18]; LES400 (MDR)
  MIC: 16 µg/mL (≈ 9.12 µM)
[19]; 198 (MDR)
  MIC: 32 µg/mL (≈ 18.2 µM)
[20]
  MIC: 2 µg/mL (≈ 1.14 µM)
[21]
  MIC E. coli: 12.5 µM (≈ 21.9 µg/mL)
[22]
  HD10 (hemolytic activity): 165
  HD50 (hemolytic activity): > 200

## O=C(O)c1cn(C2CC2)c2cc(N3CCNCC3)c(F)cc2c1=O [Ciprofloxacin, reference compound]
[1]; Enterococcus faecalis
  MIC: 0.3 µg/mL (≈ 0.905 µM)
[2]; Escherichia coli
  MIC: > 128 µg/mL
[3]; Staphylococcus aureus, MRSA
  MIC: 2 µg/mL (≈ 6.04 µM)
[4]; Pseudomonas aeruginosa
  MIC: 0.1 µg/mL (≈ 0.302 µM)
[5]; Pseudomonas aeruginosa
  MIC: 64 µg/mL (≈ 193 µM)
[6]; Staphylococcus aureus
  MIC: 0.1 µg/mL (≈ 0.302 µM)
[7]; Enterococcus faecium, VRE
  MIC: 128 µg/mL (≈ 386 µM)
[8]; Enterococcus faecium, VRE
  MIC: 32 µg/mL (≈ 96.6 µM)
[9]; Klebsiella pneumoniae
  MIC: 64 µg/mL (≈ 193 µM)
[10]; Escherichia coli
  MIC: > 128 µg/mL
[11]; Pseudomonas aeruginosa
  MIC: 1 µg/mL (≈ 3.02 µM)
[13]; Pseudomonas aeruginosa
  MIC: 0.3 µg/mL (≈ 0.905 µM)
[14]; Enterococcus faecalis, VRE
  MIC: 32 µg/mL (≈ 96.6 µM)
[15]; Enterococcus faecalis, VRE
  MIC: 32 µg/mL (≈ 96.6 µM)
[16]; Pseudomonas aeruginosa
  MIC: 128 µg/mL (≈ 386 µM)
[17]; Klebsiella pneumoniae
  MIC: 0.1 µg/mL (≈ 0.302 µM)
[18]; Pseudomonas aeruginosa
  MIC: 0.5 µg/mL (≈ 1.51 µM)
[19]; Pseudomonas aeruginosa
  MIC: 32 µg/mL (≈ 96.6 µM)
[20]; Stenotrophomonas maltophilia
  MIC: 0.3 µg/mL (≈ 0.905 µM)

## CC(C)(O/N=C(\C(=O)N[C@@H]1C(=O)N2C(C(=O)[O-])=C(C[n+]3ccccc3)CS[C@H]12)c1csc(N)n1)C(=O)O [Ceftazidime, reference compound]
[1]; Enterococcus faecalis
  MIC: 128 µg/mL (≈ 234 µM)
[2]; Escherichia coli
  MIC: 128 µg/mL (≈ 234 µM)
[3]; Staphylococcus aureus, MRSA
  MIC: 64 µg/mL (≈ 117 µM)
[4]; Pseudomonas aeruginosa
  MIC: 2 µg/mL (≈ 3.66 µM)
[5]; Pseudomonas aeruginosa
  MIC: > 128 µg/mL
[6]; Staphylococcus aureus
  MIC: 16 µg/mL (≈ 29.3 µM)
[7]; Enterococcus faecium, VRE
  MIC: > 128 µg/mL
[8]; Enterococcus faecium, VRE
  MIC: > 128 µg/mL
[9]; Klebsiella pneumoniae
  MIC: > 128 µg/mL
[10]; Escherichia coli
  MIC: > 128 µg/mL
[11]; Pseudomonas aeruginosa
  MIC: 128 µg/mL (≈ 234 µM)
[12]; Enterobacter cloacae
  MIC: 32 µg/mL (≈ 58.5 µM)
[14]; Enterococcus faecalis, VRE
  MIC: > 128 µg/mL
[15]; Enterococcus faecalis, VRE
  MIC: > 128 µg/mL
[16]; Pseudomonas aeruginosa
  MIC: > 128 µg/mL
[17]; Klebsiella pneumoniae
  MIC: > 128 µg/mL
[18]; Pseudomonas aeruginosa
  MIC: 32 µg/mL (≈ 58.5 µM)
[19]; Pseudomonas aeruginosa
  MIC: 128 µg/mL (≈ 234 µM)
[20]; Stenotrophomonas maltophilia
  MIC: 0.3 µg/mL (≈ 0.549 µM)

Reference: article PMC4744035, “In Vivo, In Vitro, and In Silico Characterization of Peptoids as Antimicrobial Agents” (PLoS ONE, 2016)
